The values that follow come from patent publication US20200115353A1, “NEW COMPOUNDS INHIBITORS OF THE YAP/TAZ-TEAD INTERACTION AND THEIR USE IN THE TREATMENT OF MALIGNANT MESOTHELIOMA” (INVENTIVA, priority 2017, published 2020).

T1 sequence (P04386+P28347 fused, stated change not applied): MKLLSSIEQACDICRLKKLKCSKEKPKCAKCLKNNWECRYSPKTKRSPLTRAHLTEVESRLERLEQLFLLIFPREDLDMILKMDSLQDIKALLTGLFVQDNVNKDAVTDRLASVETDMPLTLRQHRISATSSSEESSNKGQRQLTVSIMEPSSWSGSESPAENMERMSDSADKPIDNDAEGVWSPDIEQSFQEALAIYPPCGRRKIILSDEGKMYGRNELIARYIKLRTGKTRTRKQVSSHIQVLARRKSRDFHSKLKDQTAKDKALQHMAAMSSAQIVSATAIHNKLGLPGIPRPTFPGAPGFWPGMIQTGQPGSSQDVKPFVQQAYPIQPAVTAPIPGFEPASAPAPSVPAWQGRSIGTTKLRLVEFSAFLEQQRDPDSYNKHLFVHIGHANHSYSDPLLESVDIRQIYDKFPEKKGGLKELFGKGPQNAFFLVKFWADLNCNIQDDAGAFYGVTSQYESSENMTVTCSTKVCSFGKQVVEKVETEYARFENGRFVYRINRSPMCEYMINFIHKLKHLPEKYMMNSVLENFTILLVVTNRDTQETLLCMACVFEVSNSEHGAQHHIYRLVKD

Test system in one series: not given
Experiment: not given
Settings: not given
The term melting point denotes the temperature of the solid-liquid transition. In turn, `CN(/N=C/c1ccc(N2CCOCC2)cc1)C1=NS(=O)(=O)c2ccccc21` [Ex 3, N-methyl-N-[(E)-(4-morpholinophenyl)methyleneamino]-1,1-dioxo-1,2-benzothiazol-3-amine] returned a melting point of 258 to 261 °C.

On to `CN(/N=C/c1cnc(N2CCOCC2)s1)C1=NS(=O)(=O)c2ccccc21` [Ex 7, N-methyl-N-[(E)-(2-morpholinothiazol-5-yl)methyleneamino]-1,1-dioxo-1,2-benzothiazol-3-amine], for which the melting point fell in the range of 281 to 300 °C.

`CNC(=O)Cc1ccc(/C=N/N(C)C2=NS(=O)(=O)c3ccccc32)cc1OC` [Ex 20, 2-[4-[(E)-[(1,1-dioxo-1,2-benzothiazol-3-yl)-methyl-hydrazono]methyl]-2-methoxy-phenyl]-N-methyl-acetamide] registered a melting point of 228 to 231 °C.

A further series concerns the target T1, YAP-TEAD interaction (full length human TEAD1-Gal4 fusion, full length YAP mutant S127A, S397A) (UniProt P04386+P28347).
T1 construct: The TEAD1 construct was prepared by cloning the full length human TEAD1 cDNA; expressed in transfected cells; host or cells: HEK293 GripTite 293 MSR (Invitrogen R795-07), transiently transfected with pSG5_CMV plasmids
The series is described as follows: Cell-based TEAD-GAL4 transactivation assay (luciferase reporter, HEK293). The following applies: HEK293 cells, compounds 0.1 μM to 30 μM, 24 h, concentration that inhibited the luciferase activity by 50%. As to the method:
To identify inhibitors of YAP-TEAD interaction, a transient transactivation assays was carried out into HEK293 cell line (HEK293 GripTite™ 293 MSR (Invitrogen R795-07)) using plasmids containing the full length TEAD1 sequences, the full length YAP mutant (S127A, S397A) and a luciferase gene reporter. All expression constructs were performed into pSG5 backbone plasmid in which the SV40 promoter was replaced by the CMV promoter. The TEAD1 construct was prepared by cloning the full length human TEAD1 cDNA in fusion with the Gal4 DNA Binding Domain (AA 1-148) into pSG5_CMV to create the TEAD1(FL)_hum_pSG5Gal4_CMV. The full length YAP mutant (S127A, S397A) was also cloned into pSG_5 CMV to create the YAP(FL)_hum_pSG5_[…]. The reporter plasmid GAL4(5×RE)_[…]_pGL3-Basic contains 5 copies of the GAL4 responsive element (5′-TCGGAGGACAGTACTCC-3′) upstream of the thymidine kinase (TK) promoter (−105/+56) inserted in a pGL3-Basic vector. To evaluate the selectivity of our compounds in blocking the YAP-TEAD interaction, a counter-screening protein-protein interaction transactivation assays was also established. Briefly, two other expression plasmids, the pBD-P53 which express the P53 (AA 72-390) in fusion with Gal4 and the pAD-SV40T which express the SV40 large T antigen (AA 84-708,AgT), were created. HEK293 cells were seeded at 5×10^4 cells/well in 96 well plates (assay plates) in DMEM medium containing 4.5 g/L D-glucose, 10% high inactivated (HI) fetal bovine serum 1% Glutamax, 1% non-essential amino acid and 1% sodium pyruvate and 0.5% penicillin/streptomycin 37° C. in a humidified atmosphere of 8% CO2. After 24 h, transfections are performed using Jet-PEI as transfectant (101B-010 Polyplus Transfection), according to the instructions of the manufacturer (N/P=10) and a ratio YAP/TEAD=10 (per well: 50 ng of YAP(FL), 5 ng of TEAD(FL) and 50 ng of reporter plasmid). Six hours after cell transfection, the plates (‘assay plate’) were washed with 100 μl PBS per well and cell were treated with compounds in semi-log from 0.1 μM to 30 μM or DMSO 0.5% as control in DMEM 4.5 g/L D-Glucose without phenol red, 0.3% BSA, 1% glutamax, 1% NEAA, 1% sodium pyruvate. Twenty-four hours later, the luciferase activity was determined after addition of 100 μl of Steady Glo™ luciferase assay system (Promega E2550) according to the manufacturer's directions. Luciferase activity in cell extracts is measured by reading luminescence using the Envision device.
The cellular response was determined by fitting the concentration response curves using a 3-parameter curve fit equation and determining the concentration that inhibited the luciferase activity by 50%.
In general terms: A reporter such as luciferase makes a cellular process visible.
The term IC50 denotes the midpoint of a concentration-inhibition curve. A lower IC50 goes with inhibition by little substance. `CCn1c(=O)[nH]c2ccc(/C=N/N(CC(C)C)C3=NS(=O)(=O)c4cc(B(O)O)ccc43)cc21` [Ex 84, [3-[[(E)-(3-ethyl-2-oxo-1H-benzimidazol-5-yl)methyleneamino]-isobutyl-amino]-1,1-dioxo-1,2-benzothiazol-6-yl]boronic acid] yielded an IC50 of 1.67 µM.

Molecule `CSc1cc(/C=N/N(C)C2=NS(=O)(=O)c3ccccc32)ccc1F` [Ex 86, N-[(E)-(4-fluoro-3-methylsulfanyl-phenyl)methyleneamino]-N-methyl-1,1-dioxo-1,2-benzothiazol-3-amine] yielded an IC50 of 1.31 µM.

For the molecule `COc1cc(/C=N/N(CC(C)C)C2=NS(=O)(=O)c3cc(OCB(O)O)ccc32)ccc1F` [Ex 92, [3-[[(E)-(4-fluoro-3-methoxy-phenyl)methyleneamino]-isobutyl-amino]-1,1-dioxo-1,2-benzothiazol-6-yl]oxymethylboronic acid], the IC50 amounted to 0.86 µM.

As to `COc1cc(/C=N/N(CC(C)C)C2=NS(=O)(=O)c3ccc(B(O)O)cc32)ccc1F` [Ex 94, [3-[[(E)-(4-fluoro-3-methoxy-phenyl)methyleneamino]-isobutyl-amino]-1,1-dioxo-1,2-benzothiazol-5-yl]boronic acid], the concentration for half-maximal inhibition (IC50) was found to be 3.31 µM.

`COc1cc(/C=N/N(CC(C)C)C2=NS(=O)(=O)c3ccc(OCB(O)O)cc32)ccc1F` [Ex 95, [3-[[(E)-(4-fluoro-3-methoxy-phenyl)methyleneamino]-isobutyl-amino]-1,1-dioxo-1,2-benzothiazol-5-yl]oxymethylboronic acid] had an IC50 of 1.35 µM.

In the case of `CCC1(CC)C(=O)Nc2ccc(/C=N/N(CC(C)C)C3=NS(=O)(=O)c4cc(O)ccc43)cc21` [Ex 96, 3,3-diethyl-5-[(E)-[(6-hydroxy-1,1-dioxo-1,2-benzothiazol-3-yl)-isobutyl-hydrazono]methyl]indolin-2-one], it took 10.4 µM to reach half-maximal inhibition (IC50).

In the case of `CCOc1ccc2c(c1)S(=O)(=O)N=C2N(CC(C)C)/N=C/c1ccc2c(c1)C(CC)(CC)C(=O)N2` [Ex 97, 5-[(E)-[(6-ethoxy-1,1-dioxo-1,2-benzothiazol-3-yl)-isobutyl-hydrazono]methyl]-3,3-diethyl-indolin-2-one], the IC50 turned out to be 2.77 µM.

The molecule `CCC1(CC)C(=O)Nc2ccc(/C=N/N(CC(C)C)C3=NS(=O)(=O)c4cc(OC)ccc43)cc21` [Ex 98, 3,3-diethyl-5-[(E)-[isobutyl-(6-methoxy-1,1-dioxo-1,2-benzothiazol-3-yl) hydrazono]methyl]indolin-2-one] returned an IC50 of 3.92 µM.

Molecule `CCC1(CC)C(=O)Nc2ccc(/C=N/N(CC(C)C)C3=NS(=O)(=O)c4cc(OC(C)C)ccc43)cc21` [Ex 99, 3,3-diethyl-5-[(E)-[isobutyl-(6-isopropoxy-1,1-dioxo-1,2-benzothiazol-3-yl)hydrazono]methyl]indolin-2-one] displayed an IC50 of 4.14 µM.

For `COc1cc(/C=N/N(C2=NS(=O)(=O)c3cc(B(O)O)ccc32)C(C)C)ccc1F` [Ex 102, [3-[[(E)-(4-fluoro-3-methoxy-phenyl)methyleneamino]-isopropyl-amino]-1,1-dioxo-1,2-benzothiazol-6-yl]boronic acid], the IC50 came out at 3.01 µM.

`CNC(=O)COc1ccc2c(c1)C(N(CC(C)C)/N=C/c1ccc(F)c(OC)c1)=NS2(=O)=O` [Ex 105, 2-[[3-[[(E)-(4-fluoro-3-methoxy-phenyl)methyleneamino]-isobutyl-amino]-1,1-dioxo-1,2-benzothiazol-5-yl]oxy]-N-methyl-acetamide]: the IC50 turned out to be 4.94 µM.

Consider `COc1cc(/C=N/N(CC(C)C)C2=NS(=O)(=O)c3cc(OCB4OC(=O)CN(C)CC(=O)O4)ccc32)ccc1F` [Ex 106, 2-[[3-[[(E)-(4-fluoro-3-methoxy-phenyl)methyleneamino]-isobutyl-amino]-1,1-dioxo-1,2-benzothiazol-6-yl]oxymethyl]-6-methyl-1,3,6,2-dioxaza-borocane-4,8-dione], for which it took 0.94 µM to reach half-maximal inhibition (IC50).

As for `CSc1cc(/C=N/N(CC(C)C)C2=NS(=O)(=O)c3ccccc32)ccc1F` [Ex 107, N-[(E)-(4-fluoro-3-methylsulfanyl-phenyl)methyleneamino]-N-isobutyl-1,1-dioxo-1,2-benzothiazol-3-amine], the IC50 was 2.14 µM.

Consider `COc1cc(C2=NN(C3=NS(=O)(=O)c4cc(B(O)O)ccc43)C(C)CC2)ccc1F` (centres unmarked) [Ex 109, [3-[6-(4-fluoro-3-methoxy-phenyl)-3-methyl-4,5-dihydro-3H-pyridazin-2-yl]-1,1-dioxo-1,2-benzothiazol-6-yl]boronic acid], for which the IC50 worked out at 0.7 µM.

`COc1cc(C2=NN(C3=NS(=O)(=O)c4ccccc43)CC(C)(C)C2)ccc1F` [Ex 110, 3-[6-(4-fluoro-3-methoxy-phenyl)-4,4-dimethyl-3,5-dihydropyridazin-2-yl]-1,2-benzothiazole 1,1-dioxide] showed an IC50 of 3.23 µM.

In turn, `COCn1c(=O)n(C2CCC2)c2cc(/C=N/N(C)C3=NS(=O)(=O)c4ccccc43)ccc21` [Ex 111, 3-cyclobutyl-5-[(E)-[(1,1-dioxo-1,2-benzothiazol-3-yl)-methyl-hydrazono]methyl]-1-(methoxymethyl)benzimidazol-2-one] registered a half-maximal inhibitory concentration (IC50) of 8.57 µM.

Regarding `CN(/N=C/c1ccc2c(c1)n(C1CCC1)c(=O)n2COC(=O)C(C)(C)C)C1=NS(=O)(=O)c2ccccc21` [Ex 113, [3-cyclobutyl-5-[(E)-[(1,1-dioxo-1,2-benzothiazol-3-yl)-methyl-hydrazono]methyl]-2-oxo-benzimidazol-1-yl]methyl 2,2-dimethylpropanoate], the IC50 was found to be 4 µM.

`CCCC(=O)OCn1c(=O)n(C2CCC2)c2cc(/C=N/N(C)C3=NS(=O)(=O)c4ccccc43)ccc21` [Ex 114, [3-cyclobutyl-5-[(E)-[(1,1-dioxo-1,2-benzothiazol-3-yl)-methyl-hydrazono]methyl]-2-oxo-benzimidazol-1-yl]methyl butanoate] had an IC50 of 4.95 µM.

Regarding `CCOCn1c(=O)n(C2CCC2)c2cc(/C=N/N(C)C3=NS(=O)(=O)c4ccccc43)ccc21` [Ex 116, 3-cyclobutyl-5-[(E)-[(1,1-dioxo-1,2-benzothiazol-3-yl)-methyl-hydrazono]methyl]-1-(ethoxymethyl)benzimidazol-2-one], the IC50 came to 5.03 µM.

Still in this series, the particulars now being: HEK293 cells, compounds 0.1 μM to 30 μM, 24 h, luciferase activity.
In the case of `COc1cc(/C=N/N(CC(C)C)C2=NS(=O)(=O)c3cc(OCC(N)=O)ccc32)ccc1F` [Ex 104, 2-[[3-[[(E)-(4-fluoro-3-methoxy-phenyl)methyleneamino]-isobutyl. amino]-1,1-dioxo-1,2-benzothiazol-6-yl]oxy]acetamide], the “Max Act. (%), TEAD-GAL4 Transactivation activity” value is 72%.
